Experiment [1] deals with LPS mediated release of TNF alpha. Put plainly: LPS mediated release of TNF alpha in primary human blood. Type of experiment: cell-based.
For experiment [2], the system named is strong hypersensitivity reactions. Put plainly: strong hypersensitivity reactions in an in vivo model.
Experiment [3] has as its system oxazolone induced topical inflammation in BALB/c mice. In words: oxazolone induced contact dermatitis model (ear swelling). Type of experiment: in vivo. Here is the method: FIG. 1: Efficacy of escin in an oxazalone induced contact dermatitis model. 3 mg/kg of escin were applied intraperitoneally (ip.) 6 h before challenge, 0.9% saline solution served as a vehicle. […] Bars represent the mean of five animals, SEM is indicated.
Escin was evaluated for anti-inflammatory activity by ip. injection in the oxazolone induced topical inflammation in BALB/c mice, which is a model of type IV hypersensitivity reaction, in particular contact dermatitis. The swelling of the challenged ear in comparison to the unchallenged control was determined as a parameter for induced contact dermatitis.

Turning to escin, the “LPS mediated release of TNF alpha” value in experiment [1] is listed as “inhibits dose-dependently”. Besides, the “effects of strong hypersensitivity reactions” value in experiment [2] is recorded as “reduces the effects of strong hypersensitivity reactions”. Also, the “inhibition of oxazolone induced ear swelling” value in experiment [3] (BALB/c mice, escin 3 mg/kg ip., 6 hours after oxazolone application, challenged vs unchallenged ear) is reported as “significant inhibition”. In experiment [3] (mouse model of contact dermatitis), the “induced topical inflammation in a mouse model of contact dermatitis” value was “reduced induced topical inflammation”.

Source of the values: patent US20110224160A1, “Use of Escin for Treatment of Type IV Hypersensitivity Reaction” (MARINOMED BIOTECHNOLOGIE GMBH, priority 2008, published 2011).
